Data on one compound can be found in patent US11413254B2, “Application for (2R, 4R)-1,2,4-trihydroxyheptadec-16-yne in preparation of pharmaceutical composition for preventing or treating hepatic injury” (KAOHSIUNG MEDICAL UNIVERSITY, priority 2016, dated 2022).

The structures appear in SMILES notation.

Assay [1] has as its system fatty acid liver disease caused by high fat feed. Kind of assay: Chronic hepatitis of fatty acid liver disease caused by high fat feed, serum liver function indicators. The assay is classed as in vivo, C57BL/6 (B6) mice. The settings on record: male B6 mice, 100 mg/kg/day TY force fed, high fat feed (60% fat calorie) 18 weeks. On the procedure: Example 5. Chronic hepatitis of fatty acid liver disease caused by high fat feed was treated by TY. 15 male, 8-10 weeks old of C57BL/6 (B6) mice (20-22 g) were randomly divided into 3 groups, 4-5 B6 mice in each group, they were: 1. Healthy control group: fed with normal feed (the percentage of fat calories 5-6%); 2. Negative control group: fed with high fat feed (the percentage of fat calorie 60%) and physiological saline; 3. Experimental group: animals were given the same high fat feed as the Negative control group and force fed with 100 mg/kg/day of TY. 1 week before liver injury was induced by high fat feed, the experimental samples began to be given daily, respectively, drug solvent of the same volume as TY to Groups 1 and 2, and 100 mg/kg/daily of TY to Group 3. After 1 week, Groups 2 and 3 began to be given high fat feed, and continuously to be force fed with the drug solvent of the volume same as TY and 100 mg/kg/day of TY for 18 weeks. The mice began to fast on the 18th week, and 12 hours after fasting, all B6 mice were sacrificed. Prior to being sacrificed, blood was collected from the heart and serum was separated for analysis of the biochemical function of the liver.

In assay [2] the test system is acute hepatitis caused by alcohol (ethanol). Kind of assay: Acute hepatitis caused by alcohol (ethanol), serum liver function indicators. It counts as in vivo. As to conditions: male Wistar rats, 100 mg/kg/day TY force fed, 50% ethanol. On the procedure:
Example 3. The effect of TY on the treatment of acute hepatitis caused by alcohol (ethanol). Nine male Wistar rats (200-250 g) were randomly divided into 3 groups, 3 Wistar rats in each group, they were: 1. Healthy control group: force fed with physiological saline (2.5 mg/kg) of the same volume as TY; 2. Negative control group (ethanol and physiological saline): force fed with physiological saline of the same volume as TY and force fed with 50% ethanol; 3. Experimental group (ethanol and 100 mg/kg/day of TY): force fed 100 mg/kg/day of TY and force fed with 50% ethanol. First, the drug solvent or TY was administered by force feeding once daily, and the first force feeding was defined as the first day. One hour after force feeding on the fourth day, Group 1 was given physiological saline (2.5 mg/kg), Groups 2-3 were given […] 50% ethanol (2.5 mg/kg), respectively. The rats were force fed with ethanol again 12 hours after the first force feeding, and fasted 12 hours after the second force feeding. After being fasted for 12 hours, all Wistar rats were sacrificed. Prior to being sacrificed, blood was collected from the heart and serum was separated for analysis of the biochemical function of the liver.

The subject of assay [3] is fatty acid liver disease induced by high fat feed. The assay is described as follows: Serum triglyceride level of mice with fatty acid liver disease induced by high fat feed. It counts as in vivo, C57BL/6 (B6) mice. The settings on record: male B6 mice, 100 mg/kg/day TY force fed, high fat feed (60% fat calorie) 18 weeks, FIG. 6. The text has this: Example 6. TY decreased serum triglyceride level of the mice with fatty acid liver disease induced by high fat feed. 15 male, 8-10 weeks old of C57BL/6 (B6) mice (20-22 g) were randomly divided into 3 groups, 4-5 B6 mice in each group, and they were: 1. Healthy control group: fed with normal feed (the percentage of fat calories 5-6%); 2. Negative control group: fed with high fat feed (the percentage of fat calorie 60%) and force fed with physiological saline (high fat feed and physiological saline); 3. Experimental group: animals were given the same high fat feed as the Negative control group and force fed with 100 mg/kg/day of TY (high fat feed and TY). 1 week before liver injury was induced by the high fat feed, the experimental samples began to be given daily, respectively, drug solvent of the same volume as TY to Groups 1 and 2, and 100 mg/kg of TY daily to Group 3. after 1 week, Groups 2 and 3 began to be given high fat feed, and continuously to be force fed with the drug solvent of the same volume as TY and 100 mg/kg/day of TY for 18 weeks. The mice began to fast on the 18th week, and 12 hours after fasting, all B6 mice were sacrificed. Prior to being sacrificed, blood was collected from the heart and serum was separated for analysis of the serum triglyceride level.

Assay [4] relates to hepatocellular injury and abnormalities caused by alcohol (ethanol). The assay is described as follows: Hepatocellular injury and abnormalities caused by alcohol (ethanol), liver H&E staining. It counts as in vivo. The settings on record: male Wistar rats, 100 mg/kg/day TY force fed, 50% ethanol, FIG. 4. On the procedure:
Example 4. Hepatocellular injury and abnormalities caused by alcohol (ethanol) were treated by TY. Nine male Wistar rats (200-250 g) were randomly divided into 3 groups, 3 Wistar rats in each group, they were: 1. Healthy control group: force fed with drug solvent of the same volume as TY and force fed with physiological saline (2.5 mg/kg); 2. Negative control group (ethanol and physiological saline): force fed with physiological saline of the same volume as TY and force fed with 50% ethanol; 3. Experimental group (Ethanol and 100 mg/kg/day of TY): force fed 100 mg/kg/day of TY and force fed with 50% ethanol. First, food solvent or TY was administered by force feeding once daily, and the first force feeding was defined as the first day. One hour after force feeding on the fourth day, Group 1 was given physiological saline (2.5 mg/kg), Groups 2-3 were given 50% ethanol injection (2.5 mg/kg), respectively. The rats were force fed with ethanol again 12 hours after the first force feeding, and fasted 12 hours after the second force feeding. After being fasted for 12 hours, all Wistar rats were sacrificed. After the rats were sacrificed, livers were collected and soaked in formalin, and stained with H&E staining, then observed and images taken with a microscope.

Assay [5] concerns hepatocellular injury and necrosis caused by carbon tetrachloride. The assay is described as follows: Hepatocellular injury and necrosis caused by carbon tetrachloride, liver H&E staining. The assay is classed as in vivo. As to conditions: male Wistar rats, 100 mg/kg/day TY force fed, 20% carbon tetrachloride/olive oil i.p., FIG. 2. On the procedure:
Example 2. Hepatocellular injury and necrosis caused by carbon tetrachloride were treated by TY. Nine male Wistar rats (200-250 g) were randomly divided into 3 groups, 3 Wistar rats in each group, they were: 1. Healthy control group: force fed with drug solvent of the same volume as TY and intraperitoneal injection of olive oil (2.5 mg/kg); 2. Negative control group (carbon tetrachloride and physiological saline): force fed with physiological saline and intraperitoneal injection of 20% carbon tetrachloride/olive oil of the same volume as TY; 3. Experimental group (carbon tetrachloride and 100 mg/kg/day of TY): force fed 100 mg/kg/day of TY and intraperitoneal injection of 20% carbon tetrachloride/olive oil. First, the physiological saline or TY was administered by force feeding once daily, and the first force feeding was defined as the first day. One hour after the force feeding on the fourth day, Group 1 was given intraperitoneal injection of olive oil (2.5 mg/kg), Groups 2-3 were given intraperitoneal injection of 20% carbon tetrachloride/olive oil (2.5 mg/kg), respectively. The rats were fasted 12 hours after injection, all Wistar rats were sacrificed 12 hours after fasting. After the rats were sacrificed, livers were collected and soaked in formalin, and stained with H&E staining, then observed and images were taken with a microscope.

Assay [6] has as its system acute hepatitis caused by carbon tetrachloride. The assay is described as follows: Acute hepatitis caused by carbon tetrachloride, serum liver function indicators. The assay is classed as in vivo. As to conditions: male Wistar rats, 100 mg/kg/day TY force fed, 20% carbon tetrachloride/olive oil i.p. on fourth day. As to the method: Example 1. The effect of TY for the treatment of acute hepatitis caused by carbon tetrachloride was tested. Nine male Wistar rats (200-250 g) were randomly divided into 3 groups, 3 Wistar rats in each group, they were: 1. Healthy control group: force fed with drug solvent and intraperitoneal injection of olive oil (2.5 mg/kg) of the same volume as TY; 2. Negative control group (carbon tetrachloride and physiological saline): force fed with physiological saline and intraperitoneal injection of 20% carbon tetrachloride/olive oil of the same volume as TY; 3. Experimental group (carbon tetrachloride and 100 mg/kg/day of TY): force fed 100 mg/kg/day of TY and intraperitoneal injection of 20% carbon tetrachloride/olive oil. First, the drug solvent or TY was administered by force feeding once daily and the first force feeding was defined as the first day. One hour after force feeding on the fourth day, Group 1 was given intraperitoneal injection of olive oil (2.5 mg/kg), Groups 2-3 were given intraperitoneal injection of 20% carbon tetrachloride/olive oil (2.5 mg/kg), fasted 12 hours after injection, all Wistar rats were sacrificed 12 hours after fasting. Prior to being sacrificed, blood was collected from the heart and serum was separated for analysis of the biochemical function of the liver.

Assay [7] has as its system fatty acid disease induced by high fat feed. The assay is described as follows: Hepatocellular injury and abnormalities of fatty acid disease induced by high fat feed, liver H&E staining. As to conditions: male B6 mice, 100 mg/kg/day TY force fed, high fat feed (60% fat calorie) 18 weeks, FIG. 7. The assay is classed as in vivo, C57BL/6 (B6) mice. As to the method:
Example 7. Hepatocellular injury and abnormalities of fatty acid disease induced by high fat feed were treated with TY. 15 male, 8-10 weeks old of C57BL/6 (B6) mice (20-22 g) were randomly divided into 3 groups, and 4-5 B6 mice in each group, they were: 1. Healthy control group: fed with normal feed (the percentage of fat calories 5-6%); 2. Negative control group: fed with high fat feed (the percentage of fat calorie 60%) and force fed with physiological saline; 3. Experimental group: animals were given the same high fat feed as the Negative control group and force fed with 100 mg/kg/day of TY (high fat feed and TY). 1 week before liver injury was induced by the high fat feed, the experimental samples began to be given daily, respectively, the drug solvent of the same volume as TY to Groups 1 and 2, and 100 mg/kg of TY daily to Group 3. After 1 week, Groups 2 and 3 began to be given high fat feed, and continuously to be force fed with the drug solvent of the same volume as TY and 100 mg/kg/day of TY for 18 weeks. The mice began to fast on the 18th week, and 12 hours after fasting, all B6 mice were sacrificed. After the mice were sacrificed, livers were collected and soaked in formalin, stained with H&E staining, and then observed and images taken with a microscope.

As to `C#CCCCCCCCCCCC[C@@H](O)C[C@@H](O)CO` [TY, (2R,4R)-1,2,4-trihydroxy heptadec-16-yne], the “liver function indicator GOT/AST increased by the high-fat feed” value in assay [1] (FIG. 5A) is listed as “significantly decreased”. In addition, the “liver function indicator GPT/ALT increased by the high-fat feed” value in assay [1] (FIG. 5B) is listed as “significantly decreased”. In assay [2] (FIG. 3A), the “liver function indicator GOT/AST increased by ethanol” value was “significantly decreased”. Moreover, the “liver function indicator GPI/ALT increased by ethanol” value in assay [2] (FIG. 3B) was “significantly decreased”. Further, the “serum triglyceride level increased by the high-fat diet” value in assay [3] is recorded as “significantly decreased”. Moreover, the “liver injury and tissue abnormalities caused by ethanol (H&E staining)” value in assay [4] is “capable of reducing the liver injury and tissue abnormalities”. Moreover, in assay [5], the “hepatocellular necrosis near the central vein caused by carbon tetrachloride (H&E staining)” value is reported as “capable of effectively reducing hepatocellular necrosis near the central vein”. Further, in assay [6] (FIG. 1A), the “liver function indicator GOT/AST increased by carbon tetrachloride” value is “significantly decreased”. Also, the “liver function indicator GPI/ALT increased by carbon tetrachloride” value in assay [6] (FIG. 1B) is “significantly decreased”. For the same compound, the “liver injury and tissue abnormalities caused by the high fat feed (H&E staining)” value in assay [7] is “capable of reducing the liver injury and tissue abnormalities”.
